Results reported in ChEMBL document CHEMBL4828760, “Chalcogenides-incorporating carbonic anhydrase inhibitors concomitantly reverted oxaliplatin-induced neuropathy and enhanced antiproliferative action” (Eur J Med Chem, 2021).
The source made the active and inactive calls.

Key:
Carbonic anhydrase 9 = Carbonic anhydrase 9 (Homo sapiens, UniProt Q16790); test: Inhibition of recombinant human CA9 pre-incubated for 15 mins measured by phenol red dye based stopped flow CO2 hydration assay
Mus musculus [1] = test: Antiallodynic activity in po dosed CD-1 albino mouse model of oxaliplatin-induced neuropathic pain assessed as reduction in pain-related behavior administered 14 days post oxaliplatin induction and measured upto 75 mins by cold plate test; type: functional, organism-based; settings: dose 10-100 mg/kg, time 14.0 day
Mus musculus [2] = test: Anti-hypersensitive activity in CD-1 albino mouse model of oxaliplatin-induced neuropathic pain assessed as restoration of normal pain threshold at 100 mg/kg, po administered 14 days post oxaliplatin induction and measured upto 75 mins by cold plate test; type: functional, organism-based; settings: time min <=75
Mus musculus [3] = test: Anti-hypersensitive activity in CD-1 albino mouse model of oxaliplatin-induced neuropathic pain assessed as restoration of normal pain threshold at 10 mg/kg, po administered 14 days post oxaliplatin induction and measured upto 75 mins by cold plate test; type: functional, organism-based; settings: time min <=75
Mus musculus [4] = test: Anti-hypersensitive activity in CD-1 albino mouse model of oxaliplatin-induced neuropathic pain assessed as restoration of normal pain threshold at 30 to 100 mg/kg, po administered 14 days post oxaliplatin induction and measured upto 75 mins by cold plate test; type: functional, organism-based; settings: dose 30-100 mg/kg, time min <=75
MCF7 [5] = test: Cytotoxicity against human MCF7 cells assessed as reduction in cell viability at 100 uM measured after 72 hrs under hypoxic condition in presence of cisplatin by MTT assay; type: functional, cell-based
MCF7 [6] = test: Cytotoxicity against human MCF7 cells assessed as reduction in cell viability at 100 uM measured after 72 hrs under hypoxic condition in presence of doxorubicin by MTT assay; type: functional, cell-based
MCF7 [7] = test: Cytotoxicity against human MCF7 cells assessed as reduction in cell viability measured after 72 hrs under hypoxic condition by MTT assay; settings: MCF7, 72 h

Row | Structure (SMILES) | Ki (Carbonic anhydrase 9) [nM] | other results
1 | C=CCOCC(O)C[Se]CC(O)C[Se]c1ccc(S(N)(=O)=O)cc1 (stereo unspecified) | 157 | 
2 | Cc1ccc(S(=O)(=O)N[C@@H](C)CSCC(O)CSc2ccc(S(N)(=O)=O)cc2)cc1 (stereo partly specified) | 193 | 
3 | NS(=O)(=O)c1ccc(SCC(O)C[Se]c2ccccc2)cc1 (stereo unspecified) | 29.2 | Activity (Mus musculus [1]): Dose-Dependent Effect; Activity (Mus musculus [2]): Active
4 | NS(=O)(=O)c1ccc(SCC(O)CSc2ccccc2Br)cc1 (stereo unspecified) | 175 | 
5 | NS(=O)(=O)c1ccc([Se]CC(O)CSc2ccc(Br)cc2)cc1 (stereo unspecified) | 172 | Activity (Mus musculus [1]): Dose-Dependent Effect; Activity (Mus musculus [3]): Active; Activity (Mus musculus [4]): Active
6 | CCCC[Se]CC(O)C[Se]c1ccc(S(N)(=O)=O)cc1 (stereo unspecified) | 208 | 
7 | CC(O)CSCC(O)C[Se]c1ccc(S(N)(=O)=O)cc1 (stereo unspecified) | 275 | 
8 | CCCC[Se]CC(O)CSc1ccc(S(N)(=O)=O)cc1 (stereo unspecified) | 164 | Activity (MCF7 [5]): Active; Activity (MCF7 [6]): Active
9 | COc1cc([Te]CC(O)CSc2ccc(S(N)(=O)=O)cc2)cc(OC)c1OC (stereo unspecified) | 187 | IC50 (MCF7 [7]): 125000 nM; Activity (MCF7 [5]): Active; Activity (MCF7 [6]): Active
10 | Cc1ccccc1[Se]CC(O)C[Se]c1ccc(S(N)(=O)=O)cc1 (stereo unspecified) | 29.4 | 
11 | NS(=O)(=O)c1ccc(SCC(O)CSc2cccc(Br)c2)cc1 (stereo unspecified) | 135 | 
12 | NS(=O)(=O)c1ccc([Se]CC(O)C[Se]c2ccccc2)cc1 (stereo unspecified) | 84.5 | Activity (Mus musculus [1]): Dose-Dependent Effect; Activity (Mus musculus [4]): Active
13 | COc1ccc([Se]CC(O)CSc2ccc(S(N)(=O)=O)cc2)cc1 (stereo unspecified) | 156 | 
14 | NS(=O)(=O)c1ccc([Se]CC(O)CSc2ccccc2)cc1 (stereo unspecified) | 288 | Activity (MCF7 [5]): inactive; Activity (MCF7 [6]): Active
15 | NS(=O)(=O)c1ccc([Se]CC(O)CSc2ncccn2)cc1 (stereo unspecified) | 31 | 
16 | Cc1ccc([Te]CC(O)C[Se]c2ccc(S(N)(=O)=O)cc2)cc1 (stereo unspecified) | 152 | 
17 | C=CCOCC(O)C[Se]CC(O)CSc1ccc(S(N)(=O)=O)cc1 (stereo unspecified) | 241 | 
